Data from PubChem BioAssay (NCI).
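Interpolation was linear, between the two tested concentrations surrounding the appropriate level; five concentrations were tested over 48 hours in 96-well plates. Definition used: TGI = concentration required for complete inhibition of growth.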

System: P388 leukemia
Experiment: NCI tumour cell line growth inhibition, 48 h

| Compound | TGI |
| --- | --- |
| CC1CCC(NC(=O)N(CCCl)N=O)CC1 (configuration not stated) | 55.8 µM |
| COc1cc(C[C@H]2c3cc(OC)c(OC)cc3CCN2C)c(Oc2cc3c(cc2OC)-c2c(OC)c(OC)cc4c2[C@H](C3)N(C)CC4)cc1OC | 22 µM |
